The values below come from patent US7928226B2, “Salts and polymorphs of a VEGF-R inhibitor” (Agouron Pharmaceuticals Inc., priority 2005, dated 2011).

Where two headings read alike, the source gives them in different places.

Data set [1] in a line: Solid state stability at 40° C./75% RH (HPLC and polymorphic form). The data set is classed as physicochemical. The protocol:
The solid state stabilities as shown in Tables 5 and 7 were measured using the following procedure. A preliminary HPLC method was developed to investigate the stability of the salt forms of compound 1. The HPLC conditions are listed below.

Data set [2] can be described thus: Water solubility. In kind it is physicochemical.
For data set [3], the system named is VEGF-stimulated receptor autophosphorylation. Particulars: cited from earlier work.
Data set [4] relates to tumor angiogenesis. Particulars: in vivo; cited from earlier work.
Data set [5] concerns endothelial cell survival. To be noted: cited from earlier work.
Data set [6] has as its system human xenograft tumors. Particulars: in vivo; cited from earlier work.

The solubility is the dissolved amount per volume that the medium holds. Turning to `CNC(=O)c1c(C)oc2cc(Oc3ccnc4cc(OCCN5CCOCC5)ccc34)ccc12` [Bis-HBr Form I, N,2-dimethyl-6-[7-(2-morpholinoethoxy)quinolin-4-yloxy]benzofuran-3-carboxamide], in data set [1] (bis-HBr salt), the “Solid state stability, polymorphic form found, T (1 week) close” value is “Form 1”; the “Solid state stability, polymorphic form found, T (1 week) open” value was “Form I & II”; the “Solid state stability, polymorphic form found, T (4 week) close” value is “Form I & II”; the “Solid state stability, polymorphic form found, T (4 week) open” value was “Form II”. In data set [1] (bis-HBr salt), the “Solid state stability, polymorphic form found, T (6 week) close” value is recorded as “Form II”; the “Solid state stability, polymorphic form found, T (6 week) open” value is listed as “Form II”; the “Solid state stability, polymorphic form found, T (0)” value was “Form 1”. Moreover, the solubility in data set [2] (pH 3.4, read-out: Solubility) was more than 30 mg/mL.

In the case of `CNC(=O)c1c(C)oc2cc(Oc3ccnc4cc(OCCN5CCOCC5)ccc34)ccc12` [Bis-HBr Form II, N,2-dimethyl-6-[7-(2-morpholinoethoxy)quinolin-4-yloxy]benzofuran-3-carboxamide], in data set [1] (bis-HBr salt), the “Solid state stability (HPLC %) T (1 week) close” value came out at 98.70%; the “Solid state stability, polymorphic form found, T (1 week) close” value is given as “Form II”; the “Solid state stability (HPLC %) T (1 week) open” value is listed as 98.61%; the “Solid state stability, polymorphic form found, T (1 week) open” value is on record as “Form II”. In addition, in data set [1] (bis-HBr salt), the “Solid state stability (HPLC %) T (4 week) close” value came to 98.66%; the “Solid state stability, polymorphic form found, T (4 week) close” value is on record as “Form II”; the “Solid state stability (HPLC %) T (4 week) open” value worked out at 98.62%; the “Solid state stability, polymorphic form found, T (4 week) open” value was “Form II”. Besides, in data set [1] (bis-HBr salt), the “Solid state stability (HPLC %) T (6 week) close” value is 98.61%; the “Solid state stability, polymorphic form found, T (6 week) close” value was “Form II”; the “Solid state stability (HPLC %) T (6 week) open” value was determined as 98.49%; the “Solid state stability, polymorphic form found, T (6 week) open” value is listed as “Form II”. Besides, in data set [1] (bis-HBr salt), the “Solid state stability (HPLC %) T (0)” value came out at 98.53% and the “Solid state stability, polymorphic form found, T (0)” value is listed as “Form II”. Also, the solubility in data set [2] (pH 3.4) is reported as >30 mg/ml (pH 3.4).

Take `CNC(=O)c1c(C)oc2cc(Oc3ccnc4cc(OCCN5CCOCC5)ccc34)ccc12` [Bis-maleate Form I, N,2-dimethyl-6-[7-(2-morpholinoethoxy)quinolin-4-yloxy]benzofuran-3-carboxamide]: in data set [1] (bis-maleate salt), the “Solid state stability (HPLC %) T (1 week) close” value worked out at 99.9%; the “Solid state stability, polymorphic form found, T (1 week) close” value is given as “Form I”; the “Solid state stability (HPLC %) T (1 week) open” value amounted to 99.9%; the “Solid state stability, polymorphic form found, T (1 week) open” value is on record as “Form I”. Further, in data set [1] (bis-maleate salt), the “Solid state stability (HPLC %) T (4 week) close” value is given as 99.9%; the “Solid state stability, polymorphic form found, T (4 week) close” value is recorded as “Form I”; the “Solid state stability (HPLC %) T (4 week) open” value came to 99.9%; the “Solid state stability, polymorphic form found, T (4 week) open” value is on record as “Form I”. Besides, in data set [1] (bis-maleate salt), the “Solid state stability (HPLC %) T (6 week) close” value stood at 99.9%; the “Solid state stability, polymorphic form found, T (6 week) close” value is reported as “Form I”; the “Solid state stability (HPLC %) T (6 week) open” value is 99.8%; the “Solid state stability, polymorphic form found, T (6 week) open” value is recorded as “Form I”. In data set [1] (bis-maleate salt), the “Solid state stability (HPLC %) T (0)” value stood at 99.9% and the “Solid state stability, polymorphic form found, T (0)” value is on record as “Form I”. The solubility in data set [2] (pH 3.6, read-out: Solubility) was not below 150 mg/mL.

Regarding `CNC(=O)c1c(C)oc2cc(Oc3ccnc4cc(OCCN5CCOCC5)ccc34)ccc12` [Bis-maleate Form III, N,2-dimethyl-6-[7-(2-morpholinoethoxy)quinolin-4-yloxy]benzofuran-3-carboxamide], in data set [1] (bis-maleate salt), the “Solid state stability, polymorphic form found, T (1 week) close” value is given as “Form III”; the “Solid state stability, polymorphic form found, T (4 week) close” value is “Form III”; the “Solid state stability (HPLC %) T (6 week) close” value was 99.9%; the “Solid state stability, polymorphic form found, T (6 week) close” value is listed as “Form III”. Besides, in data set [1] (bis-maleate salt), the “Solid state stability (HPLC %) T (0)” value was 99.9% and the “Solid state stability, polymorphic form found, T (0)” value is recorded as “Form III”. In data set [2] (pH 3.8, read-out: Solubility), the solubility is not below 30 mg/mL.

For `CNC(=O)c1c(C)oc2cc(Oc3ccnc4cc(OCCN5CCOCC5)ccc34)ccc12` [compound 1, N,2-dimethyl-6-[7-(2-morpholinoethoxy)quinolin-4-yloxy]benzofuran-3-carboxamide], the “blocking of VEGF-stimulated receptor autophosphorylation” value in data set [3] is given as “selectively blocks”. The “inhibition of tumor angiogenesis” value in data set [4] is reported as “significant inhibition”. In addition, the “blocking of endothelial cell survival” value in data set [5] is on record as “selectively blocks”. Besides, the “inhibition of the growth of human xenograft tumors” value in data set [6] is recorded as “significant inhibition”.
